# Assay results from patent US4859229A, “3-Aryluracils having an ether (thio) carbomyloxy or sulphomyloxy substituent on the aromatic moiety” (Hoffmann-La Roche Inc., priority 1986, dated 1989).
# System: weeds, including weed grasses
# Assay: herbicidal activity (general statement, no test described)
# Type: in vivo
# Conditions: in words; no rate or test printed
smiles,measurement,value
"Cn1c(C(F)(F)F)cc(=O)n(-c2cc(O)c(Cl)cc2F)c1=O [3-(4-chloro-2-fluoro-5-hydroxyphenyl)-1-methyl-6-trifluoromethyl-2,4(1H,3H)-pyrimidinedione]",herbicidal activity,especially pronounced herbicidal activity
